Results from article PMC10303271, “Synthesis and Receptor Binding Studies of α5 GABAAR Selective Novel Imidazodiazepines Targeted for Psychiatric and Cognitive Disorders” (Molecules, 2023).

Legend:
5-HT3 = molecular target: T1, 5-HT3 (Homo sapiens, UniProt P46098); assay: PDSP primary binding 5-HT3; settings: 1.5 h; primary binding, 10,000 nM; last figure of the line = mean of the 4 before it; read-out: 5-HT3, PDSP raw data, mean
T1 construct: purchased NIMH Psychoactive Drug Screening Program (PDSP)
T1 sequence (P46098 24-478): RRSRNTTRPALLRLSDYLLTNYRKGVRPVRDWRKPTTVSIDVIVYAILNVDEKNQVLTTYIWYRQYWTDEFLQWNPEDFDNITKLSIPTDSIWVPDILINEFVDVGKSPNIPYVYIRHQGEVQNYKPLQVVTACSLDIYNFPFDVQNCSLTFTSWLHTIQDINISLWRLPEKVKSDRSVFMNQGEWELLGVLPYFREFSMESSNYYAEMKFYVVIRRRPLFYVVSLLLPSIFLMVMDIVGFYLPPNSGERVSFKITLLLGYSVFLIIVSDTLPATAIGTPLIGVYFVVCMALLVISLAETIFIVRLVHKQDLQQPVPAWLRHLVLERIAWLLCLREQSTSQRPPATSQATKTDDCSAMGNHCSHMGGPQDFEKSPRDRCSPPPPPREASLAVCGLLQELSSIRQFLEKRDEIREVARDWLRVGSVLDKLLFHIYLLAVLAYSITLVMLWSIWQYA
Description: (§1) To determine if any off-target receptor-binding effects are present, all the novel ligands were sent to the National Institute of Mental Health (NIMH), Psychoactive Drug Screening Program (PDSP). The ligands were screened over a panel of 47 receptors, ion channels, and transporters to determine any other possible interactions with […]. The hERG-binding was also determined. […] No binding of the test compounds to calcium channels was observed. […] It is necessary to screen the compounds for hERG-binding during the early process of drug discovery. The unintentional binding of many drugs to hERG can cause blockade of hERG K+ channels in the heart, which can cause many side effects including cardiac arrhythmias and sudden death. […] All of the α5 imidazodiazepines were tested for hERG-binding.
(§2) The NIMH PDSP assay protocol book [https://kidbdev.med.unc.edu/databases/PDSP%20Protocols%20II%202013-03-28.pdf accessed on 23 April 2023]. describes the protocols for primary and secondary radio-ligand binding assays. These assays were carried out in a final volume of 125 µL per well in the appropriate binding buffer.
(§3) The binding of a ligand to a receptor, ion channel, or transporter was determined in the […] of 10 µM of the appropriate reference compound. […] Plates were incubated in the dark for 90 min at rt, and the reactions were stopped by vacuum filtration onto 0.3% polyethyleneimine (PEI) soaked 96-well filter mats using a 96-well Filtermateharvester. This was followed by three washes with cold PBS buffer. Radioactivity was then counted on a Microbeta counter. Nonlinear regression was used to analyze the data with N = 6 replicates.

M3 = molecular target: T2, M3 (Homo sapiens, UniProt P20309); assay: PDSP primary binding M3; settings: primary binding, 10,000 nM; last figure of the line = mean of the 4 before it; read-out: M3, PDSP raw data, mean
T2 construct: purchased NIMH Psychoactive Drug Screening Program (PDSP)
T2 sequence (P20309 whole entry): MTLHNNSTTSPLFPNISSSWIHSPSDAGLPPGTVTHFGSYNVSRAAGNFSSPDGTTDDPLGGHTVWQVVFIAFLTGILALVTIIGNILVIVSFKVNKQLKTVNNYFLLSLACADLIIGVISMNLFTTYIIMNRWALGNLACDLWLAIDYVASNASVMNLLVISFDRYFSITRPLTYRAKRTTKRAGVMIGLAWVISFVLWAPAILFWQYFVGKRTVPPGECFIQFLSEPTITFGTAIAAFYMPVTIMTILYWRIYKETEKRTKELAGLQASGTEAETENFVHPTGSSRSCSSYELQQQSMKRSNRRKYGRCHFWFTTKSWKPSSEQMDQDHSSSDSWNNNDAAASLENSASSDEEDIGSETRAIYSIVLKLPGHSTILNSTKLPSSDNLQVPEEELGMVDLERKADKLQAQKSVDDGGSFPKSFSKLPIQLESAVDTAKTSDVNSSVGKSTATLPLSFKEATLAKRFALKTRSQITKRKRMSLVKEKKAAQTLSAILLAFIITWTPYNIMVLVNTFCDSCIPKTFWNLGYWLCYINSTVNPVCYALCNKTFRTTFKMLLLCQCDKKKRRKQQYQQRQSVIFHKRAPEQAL
Description: as §1, §2, §3

A2A = molecular target: T3, A2A (Homo sapiens, UniProt P29274); assay: PDSP primary binding A2A; settings: primary binding, 10,000 nM; last figure of the line = mean of the 4 before it
T3 construct: purchased NIMH Psychoactive Drug Screening Program (PDSP)
T3 sequence (P29274 whole entry): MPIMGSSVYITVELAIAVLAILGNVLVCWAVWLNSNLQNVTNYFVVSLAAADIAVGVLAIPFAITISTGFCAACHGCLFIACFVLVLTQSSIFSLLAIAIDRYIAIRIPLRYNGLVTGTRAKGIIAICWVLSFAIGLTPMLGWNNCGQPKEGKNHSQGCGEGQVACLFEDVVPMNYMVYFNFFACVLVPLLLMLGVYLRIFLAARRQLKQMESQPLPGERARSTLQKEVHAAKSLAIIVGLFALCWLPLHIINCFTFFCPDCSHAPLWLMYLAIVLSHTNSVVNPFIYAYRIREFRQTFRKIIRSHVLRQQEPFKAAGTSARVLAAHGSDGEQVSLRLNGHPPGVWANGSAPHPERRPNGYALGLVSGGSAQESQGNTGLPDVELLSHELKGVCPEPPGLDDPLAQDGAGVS
Description: as §1, §2, §3

M4 = molecular target: T4, M4 (Homo sapiens, UniProt P08173); assay: PDSP primary binding M4; settings: primary binding, 10,000 nM; last figure of the line = mean of the 4 before it; read-out: M4, PDSP raw data, mean
T4 construct: purchased NIMH Psychoactive Drug Screening Program (PDSP)
T4 sequence (P08173 1-479): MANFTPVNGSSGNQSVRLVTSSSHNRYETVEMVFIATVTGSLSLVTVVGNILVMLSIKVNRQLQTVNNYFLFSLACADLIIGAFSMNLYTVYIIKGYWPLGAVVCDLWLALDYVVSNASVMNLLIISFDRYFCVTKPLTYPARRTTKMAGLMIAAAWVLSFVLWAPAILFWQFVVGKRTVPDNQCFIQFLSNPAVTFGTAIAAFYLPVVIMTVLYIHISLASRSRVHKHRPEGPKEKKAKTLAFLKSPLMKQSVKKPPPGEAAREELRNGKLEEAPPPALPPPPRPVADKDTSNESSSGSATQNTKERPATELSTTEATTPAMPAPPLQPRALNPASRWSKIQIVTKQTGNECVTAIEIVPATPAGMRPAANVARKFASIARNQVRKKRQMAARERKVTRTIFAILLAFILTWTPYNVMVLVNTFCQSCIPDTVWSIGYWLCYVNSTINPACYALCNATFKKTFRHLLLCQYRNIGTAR
Description: as §1, §2, §3

BZP rat brain site = assay: PDSP binding at BZP rat brain site; settings: for Ki: N = 2, read-out: Binding Affinity BZR Secondary Screening Ki; for Ki / Binding Affinity BZR % Inhibition (Primary): rat brain; for Binding Affinity BZR % Inhibition (Primary): at 10,000 nM, N = 5; for BZP Rat Brain Site, PDSP raw data, mean: primary binding, 10,000 nM, last figure of the line = mean of the 4 before it
Description: The BZR binding affinity of the test compounds was also measured using rat brain BzR. […] The efficacy of imidazodiazepines on the benzodiazepine receptor depends on various factors, including the specific subtype of the receptor they bind to, their chemical structure, and the dose.
as §2, §3

5-HT1D = molecular target: T5, 5-HT1D (Homo sapiens, UniProt P28221); assay: PDSP primary binding 5-HT1D; settings: 1.5 h; primary binding, 10,000 nM; last figure of the line = mean of the 4 before it; read-out: 5-HT1D, PDSP raw data, mean
T5 construct: purchased NIMH Psychoactive Drug Screening Program (PDSP)
T5 sequence (P28221 whole entry): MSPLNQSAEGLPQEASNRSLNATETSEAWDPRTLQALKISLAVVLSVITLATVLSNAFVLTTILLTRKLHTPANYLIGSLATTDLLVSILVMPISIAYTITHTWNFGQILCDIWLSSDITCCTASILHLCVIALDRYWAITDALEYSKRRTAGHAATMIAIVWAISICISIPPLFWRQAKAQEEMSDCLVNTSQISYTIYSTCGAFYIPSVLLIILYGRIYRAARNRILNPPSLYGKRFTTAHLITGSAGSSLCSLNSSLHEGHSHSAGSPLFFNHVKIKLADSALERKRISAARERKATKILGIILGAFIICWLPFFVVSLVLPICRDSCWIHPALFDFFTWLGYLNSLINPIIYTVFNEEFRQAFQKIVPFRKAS
Description: as §1, §2, §3

Alpha2Beta2 = molecular target: T6, Alpha2Beta2 (Rattus norvegicus, UniProt P12389+P12390); assay: PDSP primary binding Alpha2Beta2; settings: primary binding, 10,000 nM; last figure of the line = mean of the 4 before it; read-out: Alpha2Beta2, PDSP raw data, mean
T6 construct: purchased NIMH Psychoactive Drug Screening Program (PDSP)
T6 sequence (P12389 28-511): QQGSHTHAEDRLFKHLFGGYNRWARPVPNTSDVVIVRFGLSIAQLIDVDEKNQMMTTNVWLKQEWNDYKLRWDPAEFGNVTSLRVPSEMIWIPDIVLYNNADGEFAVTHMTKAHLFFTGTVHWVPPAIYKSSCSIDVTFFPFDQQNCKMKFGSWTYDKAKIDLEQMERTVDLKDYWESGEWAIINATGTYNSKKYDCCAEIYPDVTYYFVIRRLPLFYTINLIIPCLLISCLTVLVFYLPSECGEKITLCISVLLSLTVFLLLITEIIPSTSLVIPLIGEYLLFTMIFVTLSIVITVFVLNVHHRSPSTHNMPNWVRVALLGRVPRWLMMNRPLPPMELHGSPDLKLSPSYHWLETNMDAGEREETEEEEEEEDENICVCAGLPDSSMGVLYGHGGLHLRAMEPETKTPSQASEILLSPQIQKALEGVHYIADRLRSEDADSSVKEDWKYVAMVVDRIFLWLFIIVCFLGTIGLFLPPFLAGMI
T6 sequence (P12390 25-500): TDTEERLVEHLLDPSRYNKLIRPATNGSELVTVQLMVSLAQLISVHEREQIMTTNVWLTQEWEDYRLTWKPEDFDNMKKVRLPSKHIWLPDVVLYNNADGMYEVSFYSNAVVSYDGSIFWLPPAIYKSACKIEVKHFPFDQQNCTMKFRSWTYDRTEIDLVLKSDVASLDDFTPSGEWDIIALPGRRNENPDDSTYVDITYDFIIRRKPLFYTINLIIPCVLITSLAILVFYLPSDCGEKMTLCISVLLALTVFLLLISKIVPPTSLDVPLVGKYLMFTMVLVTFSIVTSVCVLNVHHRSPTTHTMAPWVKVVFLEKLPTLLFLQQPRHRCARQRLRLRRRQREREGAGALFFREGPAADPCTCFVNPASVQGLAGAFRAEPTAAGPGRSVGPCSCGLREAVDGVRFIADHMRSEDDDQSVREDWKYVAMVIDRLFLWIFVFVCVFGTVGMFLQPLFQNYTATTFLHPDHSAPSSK
Description: as §1, §2, §3

Sigma 1 = assay: PDSP primary binding Sigma 1; settings: primary binding, 10,000 nM; last figure of the line = mean of the 4 before it
Description: as §1, §2, §3

Alpha1B = molecular target: T7, Alpha1B (Homo sapiens, UniProt P35368); assay: PDSP primary binding Alpha1B; settings: 1.5 h; primary binding, 10,000 nM; last figure of the line = mean of the 4 before it; read-out: Alpha1B, PDSP raw data, mean
T7 construct: purchased NIMH Psychoactive Drug Screening Program (PDSP)
T7 sequence (P35368 1-520): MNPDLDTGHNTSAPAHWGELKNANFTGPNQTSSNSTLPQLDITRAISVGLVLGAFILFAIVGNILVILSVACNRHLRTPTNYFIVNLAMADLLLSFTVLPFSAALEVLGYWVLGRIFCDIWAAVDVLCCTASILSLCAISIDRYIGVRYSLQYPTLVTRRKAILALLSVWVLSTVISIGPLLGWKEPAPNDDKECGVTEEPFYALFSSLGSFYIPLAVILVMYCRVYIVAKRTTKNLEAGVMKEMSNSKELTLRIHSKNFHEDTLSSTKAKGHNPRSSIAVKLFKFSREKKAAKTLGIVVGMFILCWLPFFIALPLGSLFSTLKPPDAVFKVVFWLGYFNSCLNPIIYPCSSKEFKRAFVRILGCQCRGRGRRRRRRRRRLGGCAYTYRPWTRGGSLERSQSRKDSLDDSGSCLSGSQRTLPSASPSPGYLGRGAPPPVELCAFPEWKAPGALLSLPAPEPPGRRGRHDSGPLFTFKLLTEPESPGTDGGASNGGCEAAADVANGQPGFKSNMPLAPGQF
Description: as §1, §2, §3

Compound | inhibition at 10 µM (5-HT3) | inhibition at 10 µM (M3) | A2A, PDSP raw data, mean (A2A) | inhibition at 10 µM (M4) | Ki (BZP rat brain site) | Binding Affinity BZR % Inhibition (Primary) (BZP rat brain site) | inhibition at 10 µM (5-HT1D) | inhibition at 10 µM (Alpha2Beta2) | Sigma 1, PDSP raw data, mean (Sigma 1) | inhibition at 10 µM (Alpha1B) | BZP Rat Brain Site, PDSP raw data, mean (BZP rat brain site)
C[C@H]1N=C(c2ccccc2F)c2cc(-c3ccccc3)ccc2-n2cnc(C(=O)N(C)C)c21 [Compound 5, (R)-6-(2′-Fluorophenyl)-N,N,4-trimethyl-8-phenyl-4H-benzo[f]imidazo[1,5-a][1,4]diazepine-3-carboxamide] | -0.89% | 3.03% | 11.57% | -3.29% | 123 ± 22.3 nM | 94.79 ± 1.08% | -3.41% | -5.95% | 46.91% | -15.3% | 
C#Cc1ccc2c(c1)C(c1ccccc1Cl)=N[C@H](C)c1c(C(=O)NC)ncn1-2 [Compound 21, (R)-6-(2′-Chlorophenyl)-8-ethynyl-N,4-dimethyl-4H-benzo[f]imidazo[1,5-a][1,4]diazepine-3-carboxamide] | 2.85% | -12.9% | -13.5% | -16.9% | 77.7 ± 2.93 nM | 94.96 ± 2.06% | -9.02% | 3.88% | 44.58% | -6.66% | 
C#Cc1ccc2c(c1)C(c1ccccn1)=N[C@@H](C)c1c(C(=O)NC)ncn1-2 [Compound 23, (S)-8-Ethynyl-N,4-dimethyl-6-(pyridin-2′-yl)-4H-benzo[f]imidazo[1,5-a][1,4]diazepine-3-carboxamide] | -7.15% | 0.11% | -9.74% | 2.93% | 1300 ± 394 nM | 52.97 ± 6.26% | -15.1% | -3.67% | 43.18% | 22.2% | 
C#Cc1ccc2c(c1)C(c1ccccc1Cl)=N[C@H](C)c1c(C(=O)N(C)CC)ncn1-2 [Compound 29] | -4.07% | -8.9% | -10.24% | 4.91% | 394 ± 40.2 nM | 87.49 ± 2.75% | -13.1% | -2.89% | 35.65% | 19.8% | 
C#Cc1ccc2c(c1)C(c1ccccn1)=N[C@@H](C)c1c(C(=O)N(C)C)ncn1-2 [Compound 31, (S)-8-Ethynyl-N,N,4-trimethyl-6-(pyridin-2′-yl)-4H-benzo[f]imidazo[1,5-a][1,4]diazepine-3-carboxamide] | -3.58% | -13% | -10.83% | 3.2% | 838 ± 107 nM | 83.57 ± 1.57% | -15% | -2.25% | 27.79% | 11% | 
C#Cc1ccc2c(c1)C(c1ccccc1F)=N[C@H](C)c1c(C(=S)N(C)C)ncn1-2 [Compound 33, (R)-8-Ethynyl-6-(2′-fluorophenyl)-N,N,4-trimethyl-4H-benzo[f]imidazo[1,5-a][1,4]diazepine-3-carbothioamide] | -0.89% | 3.03% | 11.57% | -3.29% | 871 ± 8.72 nM |  | -3.41% | -5.95% | 46.91% | -15.3% | 94.79%
CCc1noc(-c2ncn3c2[C@@H](C)N=C(c2ccccc2F)c2cc(-c4ccccc4)ccc2-3)n1 [Compound 35, (R)-3-Ethyl-5-(6-(2′-fluorophenyl)-4-methyl-8-phenyl-4H-benzo[f]imidazo[1,5-a][1,4]diazepin-3-yl)-1,2,4-oxadiazole] | -9.33% | 9.75% | 19.84% | -4.16% |  | 19.91 ± 7.21% | 6.66% | 4.18% | 45.25% | 8.69% | 
CCc1noc(-c2ncn3c2[C@@H](C)N=C(c2ccccc2F)c2cc(Cl)ccc2-3)n1 [Compound 36, (R)-5-(8-Chloro-6-(2′-fluorophenyl)-4-methyl-4H-benzo[f]imidazo[1,5-a][1,4]diazepin-3-yl)-3-ethyl-1,2,4-oxadiazole] | -2% | -3.98% | 1.43% | -5.41% | 590 ± 44.6 nM |  | -1.16% | -6.7% | 46% | -0.79% | 81.81%
CC(C)c1noc(-c2ncn3c2[C@@H](C)N=C(c2ccccc2F)c2cc(Cl)ccc2-3)n1 [Compound 37, (R)-5-(8-Chloro-6-(2′-fluorophenyl)-4-methyl-4H-benzo[f]imidazo[1,5-a][1,4]diazepin-3-yl)-3-isopropyl-1,2,4-oxadiazole] | 13.5% | 15.6% | -1.87% | -4.01% |  |  | 9.73% | 3.29% | 5.67% | 4.27% | 74.07%
